Publication PMC3267017, “Design, synthesis and in vitro evaluation of novel bivalent S-adenosylmethionine analogues” (Bioorganic & Medicinal Chemistry Letters, 2012)
Where two headings read alike, the source gives them in different places.

Columns and labels:
[1] = molecular target: T1, MetJ dimer–DNA complex (F-metC) (Escherichia coli, UniProt P0A8U6); design: method as in PMID 19194573; conditions: monovalent ligand 4, 2 mM; F-metC 10 nM; read-out: EC50, concentration of MetJ monomer required to promote half-maximal formation of its complex with the F-metC DNA; cited from earlier work
T1 sequence (P0A8U6 2-105, one chain of several): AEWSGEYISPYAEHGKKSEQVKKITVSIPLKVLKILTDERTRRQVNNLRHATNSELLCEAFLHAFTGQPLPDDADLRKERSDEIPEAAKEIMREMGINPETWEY

[2] = molecular target: T1, MetJ dimer–DNA complex (F-metC); test: Fluorescence anisotropy assay: MetJ titrated into F-metC DNA and ligand, MetJ dimer–DNA complex formation; type: binding; conditions: for EC50: F-metC 10 nM, read-out: EC50, concentration of MetJ monomer required to promote half-maximal formation of its complex with the F-metC DNA
From the text: A fluorescence anisotropy-based binding assay was used to compare the relative ability of SAM analogues to promote MetJ dimer–DNA complex formation. Since SAM has low affinity for MetJ in the absence of DNA,[8,13] measurements were made in the presence of the DNA fragment F-metC, a fluorescently-labeled analogue of the shortest naturally occurring operator sequence, metC.[14] Titration of MetJ into a solution containing fixed concentrations of F-metC and ligand allows the change in anisotropy related to ternary complex formation to be measured (Fig. 5).
Figure 5 Cartoon illustrating the fluorescence anisotropy assay. The SAM molecules promote the formation of a SAM–F-metC–protein complex, with two MetJ dimers bound to the 18 base-pair DNA duplex.
The half-maximal concentration of MetJ, EC50, required to promote complex formation was determined for each ligand. […] The monovalent ligands 11 and 12 (2 mM) and the bivalent ligands 9 and 10 (1 mM) all promoted the formation of the MetJ–DNA complex (Table 1). […] The unquaternised bivalent ligands 9a–e (1 mM) promoted complex formation up to about threefold more effectively than the corresponding monovalent analogue 11. Similarly, the quaternised bivalent ligands 10a and 10b promoted, respectively, complex formation 2.4- and 3.6-fold more effectively than the quaternised monovalent analogue 12.
Analysis of novel SAM analogues binding to MetJ in the presence of operator DNA was carried out using fluorescence anisotropy. Fluorescence anisotropy experiments were performed on a Spex Fluorolog Tau spectrofluorometer (HORIBA Jobin Yvon) controlled by Datamax software. The excitation and emission wavelengths were set to 488 nm and 517 nm respectively. Slit widths were set to 5 nm and all experiments were carried out at 19 °C. The detector integration time was 5 seconds and three readings were taken of each sample to obtain an average anisotropy. Free anisotropy values were 0.051-0.060. Increase in fluorescence anisotropy was observed upon titration of MetJ into a solution of F-metC (10 nM) with and without ligand ([…]) in TK buffer pH 7.6 (50 mM Trizma hydrochloride pH 7.6, 100 mM KCl) with a total starting volume of 200 µL. […] The final DMSO concentration was 2% or less. After each addition, the sample was mixed with a pipette and left to equilibrate for five minutes before the fluorescence anisotropy readings were acquired. The intensity of linear and perpendicular light, compared to the excitation light is measured experimentally and the anisotropy was calculated using the following equation:‖
The data was fitted to a sigmoidal growth logistic model using the following equation: […]
Where A1 refers to the initial value, A2 refers to the final value, x0 refers to the centre and p is a value relating to the slope of the transition. Errors refer the standard deviation of three titration repeats. An arbitrary weighting function with the following equation was employed: […]

For `CCCNC(=O)CCCN(C)C[C@H]1O[C@@H](n2cnc3c(N)ncnc32)[C@H](O)[C@@H]1O` [Compound 4], the EC50 [1] is listed as 1000 ± 100 nM.

For `C[N+](C)(CCCC(=O)NCCCCCCNC(=O)CCC[N+](C)(C)C[C@H]1O[C@@H](n2cnc3c(N)ncnc32)[C@H](O)[C@@H]1O)C[C@H]1O[C@@H](n2cnc3c(N)ncnc32)[C@H](O)[C@@H]1O.[I-].[I-]` [Compound 19d, N,N′-Dimethyl-N,N′-di-[5′-deoxy-5′-N-methyl-N′-(4-butyryl)-adenosine]-1,6-diaminohexane diiodide], the “Fold-improvement over monovalent control 5” value ([2]; quaternised ligands 2 mM) was 2.9-fold and the EC50 ([2]; quaternised ligands 2 mM, average of three titrations) was 51 ± 2 nM.

With `C[S+](CC[C@H](N)C(=O)[O-])C[C@H]1O[C@@H](n2cnc3c(N)ncnc32)[C@H](O)[C@@H]1O` (stereo partly shown) [SAM, 1, S-Adenosylmethionine] the EC50 ([2]; SAM, ligand concentration not given, DMSO 2%) was 17.3 ± 0.3 nM.
